Laboratory results as given in patent US11459308B2 (priority 2016, dated 2022).

How the values were obtained:
in vitro = conditions: African green monkey
rVSV-EBOV GP = test: microbe, parasite or virus in culture; assay type: cell-based, Zaire Ebolavirus; conditions: Zaire ebolavirus, read-out: rVSV-EBOV IC50
[1] = tested on: authentic EBOV (EBOV-Zaire 1995); test: microbe, parasite or virus in culture; assay type: cell-based, Ebola virus; conditions: Zaire ebolavirus, Vero, 48 h, read-out: infectious EBOV-Z IC50

Structure (SMILES) | CC50 (in vitro) [µM] | IC50 (rVSV-EBOV GP) [µM] | IC50 [1] [µM]
CN1CCN(c2cc(C#N)c([N+](=O)[O-])c(NC(c3ccccc3)c3ccccc3)c2)CC1 [MBX 3743, 2-(benzhydrylamino)-4-(4-methylpiperazin-1-yl)-6-cyano-1-nitrobenzene] | > 100 | 2 | 2
CCCN1CCN(c2ccc([N+](=O)[O-])c(NC(c3ccccc3)c3ccccc3)c2)CC1 [MBX 3566, 1-(benzhydrylamino)-5-(4-propylpiperazin-1-yl)-2-nitrobenzene] | > 200 | 2.4 | 1.6
O=[N+]([O-])c1ccc(N2CCN(Cc3ccccc3)CC2)cc1NC(c1ccccc1)c1ccccc1 [MBX 3569, 1-(benzhydrylamino)-5-(4-benzylpiperazin-1-yl)-2-nitrobenzene] | > 200 | > 25 | > 20
CN1CCN(c2ccnc(NC(c3ccccc3)c3ccccc3)c2)CC1 [MBX 3586, 2-(benzhydrylamino)-4-(4-methylpiperazin-1-yl)pyridine] | 70 | 7 | 2.6
CCN1CCN(c2ccc([N+](=O)[O-])c(NC(c3ccccc3)c3ccccc3)c2)CC1 [MBX 3557, 1-(benzhydrylamino)-5-(4-ethylpiperazin-1-yl)-2-nitrobenzene] | 20 | 1.4 | 1.9
CN(C)CCNc1ccc([N+](=O)[O-])c(NC(c2ccccc2)c2ccccc2)c1 [MBX 4334, N^3-benzhydryl-N^1-(2-(dimethylamino)ethyl)-4-nitrobenzene-1,3-diamine] | 16 | 1.04 | 0.82
CC(C)(C)N1CCCN(c2ccc([N+](=O)[O-])c(NC(c3ccccc3)c3ccccc3)c2)CC1 [MBX 3748, 2-(benzhydrylamino)-4-[4-(tert-butyl)-1,4-diazepan-1-yl]-1-nitrobenzene] | 23 | 0.25 | 0.7
CC1CN(c2ccc3ncn(C(c4ccccc4)c4ccccc4)c3c2)CCN1C (stereo not drawn) [MBX 4212, 1-benzhydryl-6-(3,4-dimethylpiperazin-1-yl)-1H-benzo[d]imidazole] | 170 | 1.6 | 0.53
CCCCN1CCN(c2ccc([N+](=O)[O-])c(NC(c3ccccc3)c3ccccc3)c2)CC1 [MBX 3559, 1-(benzhydrylamino)-5-(4-butylpiperazin-1-yl)-2-nitrobenzene] | > 200 | 3.6 | 1.7
CC(C)N(CCNc1ccc2ncn(C(c3ccccc3)c3ccccc3)c2c1)C(C)C [MBX 4253, N1-(1-benzhydryl-1H-benzo[d]imidazol-6-yl)-N2,N2-diisopropylethane-1,2-diamine 2,2,2-trifluoroacetate] | 95 | 1.3 | 1.85
O=[N+]([O-])c1ccc(N2CCN(C3CCCC3)CC2)cc1NC(c1ccccc1)c1ccccc1 [MBX 3580, 1-(benzhydrylamino)-5-(4-cyclopentylpiperazin-1-yl)-2-nitrobenzene] | > 100 | 1.8 | 2.7
CN(C)CCCNc1ccc([N+](=O)[O-])c(NC(c2ccccc2)c2ccccc2)c1 [MBX 4335] | 11 | 0.79 | 0.48
c1ccc(C(c2ccccc2)n2cnc3ccc(N4CCN5CCCC5C4)cc32)cc1 (stereo not drawn) [MBX 4210, 1-benzhydryl-6-(hexahydropyrrolo[1,2-a]pyrazin-2(1H)-yl)-1H-benzo[d]imidazole] | > 200 | 1.6 | 1.8
Cc1cccc(C(Nc2cc(N3CCN(C)CC3)ccc2[N+](=O)[O-])c2ccccc2)c1 (stereo not drawn) [MBX 3634, 2-[phenyl(m-tolyl)methylamino]-4-(4-methylpiperazin-1-yl)nitrobenzene] | > 100 | 3.4 | 3
CN1CCN(c2ccc([N+](=O)[O-])c(NC(c3ccccc3)c3ccccc3)c2)CC1 [PPZ-1, N-benzhydryl-5-(4-methylpiperazin-1-yl)-2-nitroaniline] | 61 | 1.2 | 2.3
O=[N+]([O-])c1ccc(N2CCN(C3CCC3)CC2)cc1NC(c1ccccc1)c1ccccc1 [MBX 3589, 1-(benzhydrylamino)-5-[4-(cyclobutyl)piperazin-1-yl]-2-nitrobenzene] | > 200 | 0.83 | 8
O=[N+]([O-])c1ccc(N2CCN(Cc3ccsc3)CC2)cc1NC(c1ccccc1)c1ccccc1 [MBX 3577, 1-(benzhydrylamino)-5-[4-(thiophen-3-ylmethyl)piperazin-1-yl]-2-nitrobenzene] | > 200 | 6.5 | > 20
CN1CCN(c2cccc(NC(c3ccccc3)c3ccccc3)c2)CC1 [MBX 3567, 1-(benzhydrylamino)-3-(4-methylpiperazin-1-yl)benzene] | 19 | 2.5 | 4.1
CN(C)CCNc1ccc2ncn(C(c3ccccc3)c3ccccc3)c2c1 [MBX 4251, N^1-(1-benzhydryl-1H-benzo[d]imidazol-6-yl)-N^2,N^2-dimethylethane-1,2-diamine] | 105 | 2.01 | 2.66
CN1CCN(c2ccc3nnn(C(c4ccccc4)c4ccccc4)c3c2)CC1 [MBX 3537A, 1-benzhydryl-6-(4-methylpiperazin-1-yl)-benzo[d][1,2,3]triazole] | 41 | 2.3 | 2.3
CN1CCN(c2ccc3ncn(C(c4ccccc4)c4ccccc4)c3c2)CC1 [MBX 3540, 1-benzhydryl-6-(4-methylpiperazin-1-yl)benzo[d]imidazole] | 58 | 0.8 | 0.9
CN(C)CCN(C)c1ccc([N+](=O)[O-])c(NC(c2ccccc2)c2ccccc2)c1 [MBX 3729, 2-(benzhydrylamino)-4-{[2-(dimethylamino)ethyl](methyl)amino}-1-nitrobenzene] | 10 | < 0.1 | 1.3
O=[N+]([O-])c1ccc(N2CCN(Cc3ccccn3)CC2)cc1NC(c1ccccc1)c1ccccc1 [MBX 3558, 1-(benzhydrylamino)-5-[4-(pyridin-2-ylmethyl)piperazin-1-yl]-2-nitrobenzene] | > 200 | 4 | 2.8
CC(C)N1CCN(c2ccc([N+](=O)[O-])c(NC(c3ccccc3)c3ccccc3)c2)CC1 [MBX 3561, 1-(benzhydrylamino)-5-(4-isopropylpiperazin-1-yl)-2-nitrobenzene] | 63 | 1.5 | 1.7
Cc1nc2ccc(N3CCN(C)CC3)cc2n1C(c1ccccc1)c1ccccc1 [MBX 3539, 1-benzhydryl-2-methyl-6-(4-methylpiperazin-1-yl)benzo[d]imidazole] | 77 | 14 | > 20
O=[N+]([O-])c1ccc(N2CCN(CCCO)CC2)cc1NC(c1ccccc1)c1ccccc1 [MBX 3610, 2-(benzhydrylamino)-4-[4-(3-hydroxypropyl)piperazin-1-yl]nitrobenzene] | 17 | 0.6 | 0.6
O=[N+]([O-])c1ccc(N2CCN(Cc3ccco3)CC2)cc1NC(c1ccccc1)c1ccccc1 [MBX 3575, 1-(benzhydrylamino)-5-[4-(furan-2-ylmethyl)piperazin-1-yl]-2-nitrobenzene] | > 200 | 1.7 | > 20
